Like-named read-outs stand apart in the source and are kept apart here.
How the values were obtained:
[1] = tested on: noxious ischaemia to the tail of Sprague-Dawley rats; experiment: Nociception during noxious ischaemia of the rat tail (tourniquet, escape latency); format: in vivo; conditions: median (95% confidence interval), n=10, cut-off 30 min
Procedure: Sprague-Dawley rats (Rattus norvegicus) both genders weighing 250-450 g were used for nociceptive tests. The rats were housed individually at an ambient temperature of 21-23° C. on a 12-hour light; 12-hour dark cycle, and were allowed free access to standard rat chow and tap water. Groups of ten rats were used for each test. Rats were returned to stock, and in good health, after the tests.
Ischaemia was induced by applying an inflatable tourniquet to the base of the restrained rat's tail, as detailed previously (Gelgor et al., 1992). […] The time between application of the tourniquet and the escape response, that is the escape latency, is a measure of sensitivity to the noxious stimulus induced by ischaemia. To prevent tissue damage, the tourniquet was removed if the rat had not responded within 30 min.
(§1) The tail flick latency (mean of three measurements, 1 min apart) was measured and then the agent under test was administered. Thirty minutes later the tourniquet (or sham tourniquet) was applied and the escape latency measured. Immediately after release of the tourniquet, the tail flick latency was again measured, and the measurements were repeated after 30 and 60 min of reperfusion. Following inspection of the data at all three periods of reperfusion, the investigations elected to base their assessment of antihyperalgesic activity on data obtained immediately after release of the tourniquet.
Paracetamol, meloxicam and codeine phosphate were provided by the applicant. Codeine phosphate was dissolved in water. Meloxicam was dissolved in sunflower oil. Paracetamol was suspended in sunflower oil. All three agents were administered in boluses of 0.2 ml, and the paracetamol suspension was flushed with water. In control experiments, the appropriate vehicle (water, sunflower oil, or both) was administered.
Each agent was administered separately, at three doses, to determine the antinociceptve activity, if any, of each independently. Pairs of agents then were administered at three doses for each pair. Finally, the combination of the three agents was administered, at three doses. […]

[2] = tested on: reperfusion hyperalgesia of the tail of Sprague-Dawley rats; experiment: Reperfusion hyperalgesia of the rat tail following transient ischaemia (tail flick latency, antihyperalgesic index); format: in vivo; conditions: for ED50: Rattus norvegicus, read-out: ED50 (dose at which reperfusion hyperalgesia is reduced by 50%), agent separately
Procedure: Sprague-Dawley rats (Rattus norvegicus) both genders weighing 250-450 g were used for nociceptive tests. The rats were housed individually at an ambient temperature of 21-23° C. on a 12-hour light; 12-hour dark cycle, and were allowed free access to standard rat chow and tap water. Groups of ten rats were used for each test.
The response of the rats to a noxious thermal stimulus was measured using a modified tail flick test, the details of which have previously been described (Gelgor et al., 1992). The rat's tail was submerged in a water bath controlled at 49° C., and the time to the first coordinated motor response of the tail measured, with a safety cut-off at 30 s. Tail skin temperature was maintained at 29° C. by placing all but the proximal 20 mm of the rat's tail in a temperature-controlled bath, before and between measurements, to obviate the potential confounding effects of changes in tail temperature on tail flick latency (Tjolsen et al., 1989).
The hyperalgesia which occurs during reperfusion of the tail following transient ischaemia, that is following the release of the tourniquet mentioned above, was measured by comparing the tail flick latency during reperfusion with that measured in the same animal before application of the tourniquet. Hyperalgesia is manifest as a reduced tail flick latency during reperfusion, and lasts about one hour (Gelgor et al., 1992).
as §1
Codeine phosphate was dissolved in water. Meloxicam was dissolved in sunflower oil. Paracetamol was suspended in sunflower oil. All three agents were administered in boluses of 0.2 ml, and the paracetamol suspension was flushed with water. In control experiments, the appropriate vehicle (water, sunflower oil, or both) was administered.
Each agent was administered separately, at three doses, to determine the antinociceptve activity, if any, of each independently. Pairs of agents then were administered at three doses for each pair. Finally, the combination of the three agents was administered, at three doses. In all cases, the ratio of the agents was fixed at 1 meloxicam: 4 codeine: 266 paracetamol.
Antihyperalgesia is measured by the extent to which an agent reverses the hyperalgesia induced by conditioning event, which, in the test case, was transient ischaemia. An antihyperalgesic index of zero means complete lack of antihyperalgesic activity, an index of 100% means full reversal of the hyperalgesia, and an index of more than 100% implies some analgesic activity added to the antihyperalgesic activity.

[3] = oral, single agent, least-squares regression, n=9 or 10, immediately after release of tourniquet

Row | SMILES | Escape latency (min), Agent ([1]; codeine 20 mg/kg oral 30 min earlier) | ED50 ([2]; po) | Escape latency (min), Agent ([1]; meloxicam 5 mg/kg oral 30 min earlier) | ED50 [2, 3] | Escape latency (min), Agent ([1]; paracetamol 266 mg/kg oral 30 min earlier) | Antihyperalgesic activity of each agent administered separately, in words ([2]; oral, three doses each (FIG. 2), paracetamol limited to 266 mg/kg) | Antihyperalgesic activity of the agent on its own at its dose in the ED50 of the triple combination, in words ([2]; rat, in vivo)
1 | COc1ccc2c3c1O[C@H]1[C@@H](O)C=C[C@H]4[C@@H](C2)N(C)CC[C@@]341 [Codeine, codeine phosphate] | 20.9 (11.9-30.0) min | 2.4 mg/kg |  |  |  |  | 
2 | Cc1cnc(NC(=O)C2=C(O)c3ccccc3S(=O)(=O)N2C)s1 [Meloxicam, meloxicam] |  |  | 25.3 (15.7-30.0) min | 2.6 mg/kg |  |  | 
3 | CC(=O)Nc1ccc(O)cc1 [Paracetamol, paracetamol] |  |  |  | > 266 mg/kg | 18.2 (9.2-30.0) min | did not exhibit any antihyperalgesic activity | no antihyperalgesic activity

Reference: US20050090517A1, “Pharmaceutical combinations of cox-2 inhibitors and opiates” (priority 2002, published 2005)
